{
  "source": "patent US8541670B2",
  "about": "“Compositions and methods for inhibiting tumor cell growth” (priority 2007, dated 2013)",
  "key": {"JAK3": {"biological_target": "T1, JAK3 (Homo sapiens, UniProt P52333)", "T1 construct": "endogenous in cells", "T1 sequence (P52333 1-1124)": "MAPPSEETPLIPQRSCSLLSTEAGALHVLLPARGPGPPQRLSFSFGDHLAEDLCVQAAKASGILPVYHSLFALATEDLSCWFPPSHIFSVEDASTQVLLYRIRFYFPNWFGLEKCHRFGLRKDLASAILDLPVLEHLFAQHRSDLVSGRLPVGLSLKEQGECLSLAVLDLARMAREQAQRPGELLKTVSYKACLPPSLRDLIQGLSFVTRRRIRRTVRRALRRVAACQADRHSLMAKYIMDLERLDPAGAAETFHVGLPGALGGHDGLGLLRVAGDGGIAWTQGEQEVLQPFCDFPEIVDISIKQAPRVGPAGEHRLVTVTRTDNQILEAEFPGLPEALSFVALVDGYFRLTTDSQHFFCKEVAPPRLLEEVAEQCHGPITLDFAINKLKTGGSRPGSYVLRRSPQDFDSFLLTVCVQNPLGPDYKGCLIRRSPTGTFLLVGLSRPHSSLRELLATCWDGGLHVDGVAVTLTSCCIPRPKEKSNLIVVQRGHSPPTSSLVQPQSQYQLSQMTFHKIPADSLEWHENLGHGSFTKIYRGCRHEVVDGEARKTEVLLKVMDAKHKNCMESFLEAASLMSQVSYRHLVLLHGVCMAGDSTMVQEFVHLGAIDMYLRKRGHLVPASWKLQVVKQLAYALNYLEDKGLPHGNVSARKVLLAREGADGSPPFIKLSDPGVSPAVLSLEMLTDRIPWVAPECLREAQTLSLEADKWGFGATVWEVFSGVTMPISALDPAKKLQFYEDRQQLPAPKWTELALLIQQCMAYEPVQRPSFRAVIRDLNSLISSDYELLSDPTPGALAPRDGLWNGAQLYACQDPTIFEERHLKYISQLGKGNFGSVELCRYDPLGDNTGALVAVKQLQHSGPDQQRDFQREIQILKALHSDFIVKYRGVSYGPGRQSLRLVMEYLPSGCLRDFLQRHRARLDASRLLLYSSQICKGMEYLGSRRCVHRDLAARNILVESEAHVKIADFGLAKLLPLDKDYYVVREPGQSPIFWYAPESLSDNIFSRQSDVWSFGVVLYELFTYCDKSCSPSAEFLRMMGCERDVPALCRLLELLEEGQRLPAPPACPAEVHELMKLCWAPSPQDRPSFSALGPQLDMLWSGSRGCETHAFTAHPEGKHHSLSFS", "assay": "In vitro kinase assay JAK3", "format": "biochemical", "settings": "ten times higher concentration than 0.1 μM", "description": "(§1) As a specific substrate, the phosphorylation level of GSK-3[…] at Ser-9 was also evaluated. […] The decrease was specific to the AKT phosphorylation site on GSK-3[…] at Ser-9, since a change in the phosphorylation level of GSK-3[…] at Tyr-216 or GSK-3[…] at Tyr-279 was not observed. Moreover, the in vivo reduction of the phosphorylation of AKT substrates was more obvious at the injection site, since a significant change in the phosphorylation of AKT substrates in the frontal cortex or cerebellum between the two hemispheres was not observed. […] To test the specificity/selectivity of ZaTa as the inhibitor of AKT1 versus the other major kinases, a series of in vitro kinase assays was performed at IC50 for AKT1 and at ten times higher concentrations. A panel of the following 32 kinases was first tested in vitro using the active form of each kinase and a specific substrate: AKT2, AKT3, PKA, PKC[…], PKC, PI3K[…], PI3K[…], PI3K, SGK, PAK2, PAK3, SAPK2/p38, Abl, CaMKII, CDK1/cyclinB, CDK5/p35, CK1, CK2, CSK, GSK3[…], GSK3[…], JNK1[…]1, MAPK1, p70S6K, PDGFR[…], PDGFR[…], PDK1, PKG1[…], TrkB, JAK2, JAK3, and Syk. […] However, at ten times higher concentration, ZaTa inhibited AKT2 (63%), PI3K[…] (72%), p70S6K (64%), SGK (73%), PAK3 (83%), JAK3 (79%), TrkB (84%), and Abl (42%). […]"}, "Abl [1]": {"biological_target": "Abl (Homo sapiens, UniProt P00519)", "sequence (P00519 whole entry, species assumed)": "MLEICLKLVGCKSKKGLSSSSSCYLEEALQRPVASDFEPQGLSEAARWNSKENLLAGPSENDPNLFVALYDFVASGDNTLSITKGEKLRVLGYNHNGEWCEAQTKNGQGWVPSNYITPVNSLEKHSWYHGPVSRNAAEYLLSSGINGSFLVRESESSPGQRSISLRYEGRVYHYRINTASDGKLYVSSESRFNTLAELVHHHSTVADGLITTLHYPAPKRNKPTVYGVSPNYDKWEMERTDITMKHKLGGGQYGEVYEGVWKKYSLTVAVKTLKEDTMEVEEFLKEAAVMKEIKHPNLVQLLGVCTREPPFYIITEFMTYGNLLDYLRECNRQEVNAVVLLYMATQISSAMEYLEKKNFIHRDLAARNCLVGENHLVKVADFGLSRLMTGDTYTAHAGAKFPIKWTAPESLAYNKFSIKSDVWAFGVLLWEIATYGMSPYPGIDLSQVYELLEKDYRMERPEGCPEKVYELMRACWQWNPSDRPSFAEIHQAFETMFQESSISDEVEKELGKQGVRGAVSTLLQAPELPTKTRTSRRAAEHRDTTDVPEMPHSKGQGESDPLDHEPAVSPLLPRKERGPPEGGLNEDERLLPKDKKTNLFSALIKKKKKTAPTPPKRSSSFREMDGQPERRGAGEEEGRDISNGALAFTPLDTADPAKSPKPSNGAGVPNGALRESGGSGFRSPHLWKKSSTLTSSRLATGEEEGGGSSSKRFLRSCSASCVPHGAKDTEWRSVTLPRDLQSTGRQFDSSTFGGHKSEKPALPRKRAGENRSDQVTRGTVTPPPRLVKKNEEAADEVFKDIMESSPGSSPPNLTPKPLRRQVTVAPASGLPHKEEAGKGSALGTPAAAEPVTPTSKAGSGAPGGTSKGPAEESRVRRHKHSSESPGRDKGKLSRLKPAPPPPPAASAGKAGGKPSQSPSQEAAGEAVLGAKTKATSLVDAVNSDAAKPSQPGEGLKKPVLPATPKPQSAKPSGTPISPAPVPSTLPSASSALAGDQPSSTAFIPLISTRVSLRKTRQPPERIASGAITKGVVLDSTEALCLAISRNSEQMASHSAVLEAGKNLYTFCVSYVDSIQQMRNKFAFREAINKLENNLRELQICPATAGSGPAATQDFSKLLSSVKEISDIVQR", "assay": "In vitro kinase assay Abl", "format": "biochemical", "settings": "ten times higher concentration than 0.1 μM", "description": "as §1"}, "Abl [2]": {"biological_target": "T2, Abl (Mus musculus, UniProt P00520)", "T2 construct": "from tissue; host or cells: mouse brain hemisphere (striatum injection)", "T2 sequence (P00520 whole entry)": "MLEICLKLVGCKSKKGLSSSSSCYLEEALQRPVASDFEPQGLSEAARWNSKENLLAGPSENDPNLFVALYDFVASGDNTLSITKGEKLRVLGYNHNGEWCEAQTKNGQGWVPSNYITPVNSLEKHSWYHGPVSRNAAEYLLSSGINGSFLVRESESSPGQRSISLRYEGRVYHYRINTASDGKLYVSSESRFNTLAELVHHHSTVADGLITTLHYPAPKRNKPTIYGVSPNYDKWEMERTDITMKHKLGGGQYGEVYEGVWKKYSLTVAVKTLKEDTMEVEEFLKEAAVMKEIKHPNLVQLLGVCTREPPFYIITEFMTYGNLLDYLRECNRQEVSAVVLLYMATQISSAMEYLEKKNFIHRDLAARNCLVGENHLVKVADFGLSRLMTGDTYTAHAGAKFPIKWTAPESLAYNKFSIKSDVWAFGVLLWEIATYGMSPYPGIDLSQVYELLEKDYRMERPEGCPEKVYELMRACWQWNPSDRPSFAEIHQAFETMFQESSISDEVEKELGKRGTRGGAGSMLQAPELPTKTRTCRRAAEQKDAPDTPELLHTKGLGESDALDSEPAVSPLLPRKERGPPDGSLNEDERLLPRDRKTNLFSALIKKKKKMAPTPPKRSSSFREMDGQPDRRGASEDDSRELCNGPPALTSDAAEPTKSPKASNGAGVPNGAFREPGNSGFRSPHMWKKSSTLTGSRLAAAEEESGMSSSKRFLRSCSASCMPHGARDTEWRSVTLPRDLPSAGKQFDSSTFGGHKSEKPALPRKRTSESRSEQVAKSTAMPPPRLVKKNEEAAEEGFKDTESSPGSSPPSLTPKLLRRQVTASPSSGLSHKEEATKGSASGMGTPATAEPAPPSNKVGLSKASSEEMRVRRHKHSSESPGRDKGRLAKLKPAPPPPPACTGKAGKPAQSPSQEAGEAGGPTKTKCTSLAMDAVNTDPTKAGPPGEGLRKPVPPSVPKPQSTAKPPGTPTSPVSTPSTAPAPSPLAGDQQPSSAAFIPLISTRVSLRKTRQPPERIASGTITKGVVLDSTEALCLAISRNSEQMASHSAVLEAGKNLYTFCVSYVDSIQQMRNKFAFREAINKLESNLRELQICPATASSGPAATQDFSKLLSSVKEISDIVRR", "assay": "In vivo selectivity, western blot of phosphorylated substrate after injection into one hemisphere", "settings": "versus DMSO hemisphere", "description": "(§2) To analyze in vivo selectivity, ZaTa was injected into one hemisphere and DMSO in the other hemisphere, as above, and a series of western blot analyses was preformed with phospho-specific antibodies which recognize a phosphorylated substrate or each one of the kinases that ZaTa inhibited at higher concentrations in vitro. […] Given the high functional and structural homology between p70S6K and AKT, the in vivo inhibitory effect of ZaTa on p70S6K was contemplated. Furthermore, the in vivo effect of ZaTa on the phosphorylation levels of substrates for PKA, PKC, CDKs using phospho-specific antibodies recognizing the phosphorylated consensus sites of these kinases was analyzed. In contrast to the consistent decrease in phosphorylation of AKT substrates, significant changes in the phosphorylation level of PKA, PKC and CDKs substrates was not observed after in vivo injection of ZaTa.\n(§3) Phosphorylation sites for kinases analyzed herein included Ser-235/236 S6 (a substrate for p70S6K), Tyr-207 CRKL (a substrate for Abl; Zipfel, et al. (2004) supra), Ser-241 PDK1 (a substrate for PI3K), Tyr-1022/1023 JAK1 (a substrate for JAK3; Wang, et al. (2003) supra), Ser-421 Huntingtin (a substrate for SGK; Rangone, et al. (2004) supra), Tyr-783 PLC (a substrate for TrkB; Middlemas, et al. (1994) supra), and Ser-338 cRaf (a substrate for PAK3; King, et al. (1998) supra)."}, "p70S6K": {"biological_target": "T3, p70S6K (Mus musculus, UniProt Q8BSK8)", "T3 construct": "from tissue; host or cells: mouse brain hemisphere", "T3 sequence (Q8BSK8 whole entry)": "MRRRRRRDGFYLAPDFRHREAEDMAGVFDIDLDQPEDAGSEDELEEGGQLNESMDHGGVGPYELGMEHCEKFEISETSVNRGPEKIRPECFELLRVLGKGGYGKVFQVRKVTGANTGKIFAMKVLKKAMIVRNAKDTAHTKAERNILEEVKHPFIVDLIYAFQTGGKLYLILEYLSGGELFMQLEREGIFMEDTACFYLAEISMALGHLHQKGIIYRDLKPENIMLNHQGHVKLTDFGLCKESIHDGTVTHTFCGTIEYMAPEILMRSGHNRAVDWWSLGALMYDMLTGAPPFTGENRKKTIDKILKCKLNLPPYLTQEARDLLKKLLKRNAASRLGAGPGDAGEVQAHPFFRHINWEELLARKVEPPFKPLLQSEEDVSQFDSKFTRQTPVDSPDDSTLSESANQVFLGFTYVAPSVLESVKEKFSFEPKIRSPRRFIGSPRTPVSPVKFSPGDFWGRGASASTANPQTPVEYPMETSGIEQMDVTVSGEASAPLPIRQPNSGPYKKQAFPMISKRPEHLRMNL", "assay": "In vivo selectivity, western blot of phosphorylated substrate after injection into one hemisphere", "settings": "versus DMSO hemisphere", "description": "as §2, §3"}},
  "note": "Where no end group is shown, it is not given here.",
  "data": [
    {"sequence": "AKRVKGRTWTLCGTPEY [ZaTa]", "values": [
      {"measurement": "inhibition of JAK3", "setting": "JAK3", "result": 79, "unit": "%"},
      {"measurement": "inhibition of Abl", "setting": "Abl [1]", "result": 42, "unit": "%"},
      {"measurement": "in vivo inhibition of Abl", "setting": "Abl [2]", "result": "weaker in vivo inhibition"},
      {"measurement": "in vivo inhibition of p70S6K", "setting": "p70S6K", "result": "potent in vivo inhibition"}
    ]}
  ]
}
